Assay results from US20250074916A1, “BRM TARGETING COMPOUNDS AND ASSOCIATED METHODS OF USE” (Prelude Therapeutics Incorporated, priority 2023, published 2025).

How the values were obtained:
[1] = target: T1, SMARCA2 (Homo sapiens, UniProt P51531); test: SMARCA2 HiBiT degradation assay in HeLa cells; assay type: cell-based; settings: 18 hours incubation
T1 construct: SMARCA2-HiBiT knock-in Hela monoclonal cell (CS302366); host or cells: HeLa SMARCA2-HiBiT knock-in monoclonal cells (heterozygous knock-in)
T1 sequence (P51531 whole entry): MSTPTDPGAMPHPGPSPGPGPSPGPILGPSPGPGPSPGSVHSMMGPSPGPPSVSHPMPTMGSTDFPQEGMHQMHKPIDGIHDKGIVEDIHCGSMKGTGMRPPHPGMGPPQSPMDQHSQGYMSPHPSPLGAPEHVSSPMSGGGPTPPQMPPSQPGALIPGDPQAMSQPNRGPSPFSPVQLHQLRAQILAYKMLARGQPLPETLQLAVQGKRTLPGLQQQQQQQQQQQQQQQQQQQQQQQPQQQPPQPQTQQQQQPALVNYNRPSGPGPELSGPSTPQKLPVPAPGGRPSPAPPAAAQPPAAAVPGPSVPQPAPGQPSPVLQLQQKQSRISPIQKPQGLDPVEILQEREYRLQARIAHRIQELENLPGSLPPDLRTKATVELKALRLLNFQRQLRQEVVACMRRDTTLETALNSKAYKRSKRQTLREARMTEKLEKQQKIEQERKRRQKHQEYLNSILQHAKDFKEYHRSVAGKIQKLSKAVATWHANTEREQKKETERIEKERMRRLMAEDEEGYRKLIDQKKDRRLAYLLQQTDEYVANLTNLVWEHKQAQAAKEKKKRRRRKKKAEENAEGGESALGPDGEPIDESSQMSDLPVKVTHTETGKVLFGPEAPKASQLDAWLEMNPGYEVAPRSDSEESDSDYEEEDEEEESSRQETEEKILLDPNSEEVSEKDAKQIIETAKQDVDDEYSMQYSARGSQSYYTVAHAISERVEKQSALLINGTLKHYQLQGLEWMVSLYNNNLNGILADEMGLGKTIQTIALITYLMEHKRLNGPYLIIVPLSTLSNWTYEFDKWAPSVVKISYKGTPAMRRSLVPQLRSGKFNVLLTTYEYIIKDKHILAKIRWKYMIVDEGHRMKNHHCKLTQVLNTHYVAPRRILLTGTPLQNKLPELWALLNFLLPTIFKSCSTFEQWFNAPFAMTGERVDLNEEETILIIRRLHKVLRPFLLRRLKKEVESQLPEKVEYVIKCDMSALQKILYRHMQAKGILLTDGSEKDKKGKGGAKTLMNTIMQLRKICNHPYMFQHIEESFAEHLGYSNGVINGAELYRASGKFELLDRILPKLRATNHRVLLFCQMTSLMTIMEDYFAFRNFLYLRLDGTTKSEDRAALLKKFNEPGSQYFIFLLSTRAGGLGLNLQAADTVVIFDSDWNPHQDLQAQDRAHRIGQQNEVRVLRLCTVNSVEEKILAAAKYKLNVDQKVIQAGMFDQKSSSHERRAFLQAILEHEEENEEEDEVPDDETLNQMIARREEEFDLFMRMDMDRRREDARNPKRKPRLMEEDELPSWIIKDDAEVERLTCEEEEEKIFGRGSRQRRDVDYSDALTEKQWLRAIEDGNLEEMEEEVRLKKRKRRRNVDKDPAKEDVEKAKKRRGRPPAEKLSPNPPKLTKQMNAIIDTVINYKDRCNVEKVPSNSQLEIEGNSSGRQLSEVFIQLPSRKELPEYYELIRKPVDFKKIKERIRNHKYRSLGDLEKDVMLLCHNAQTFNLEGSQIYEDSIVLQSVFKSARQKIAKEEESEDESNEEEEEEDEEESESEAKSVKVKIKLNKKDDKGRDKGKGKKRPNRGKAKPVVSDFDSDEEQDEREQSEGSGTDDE
Description: (§1) Example A. SMARCA2 HiBiT and SMARCA4 HiBiT Degradation Assay
(§2) Preparation of SMARCA2/4-HiBiT Knock-In Cells
(§3) HiBiT peptide knock-in of SMARCA2 in LgBiT expressing HEK293T cells was performed by CRISPR-mediated tagging system as described Promega. The homozygous HiBiT knock-in on c-terminus SMARCA2 was confirmed by sanger sequence. SMARCA2-HiBiT knock-in Hela monoclonal cell (CS302366) and SMARCA4-HiBiT knock-in Hela monoclonal cell (CS3023226) were purchased from Promega. The heterozygous HiBiT-knock-in was confirmed by sanger sequence in both SMARCA2-HiBiT and SMARCA4-HiBiT monoclonal cells.
(§4) SMARCA2 HiBiT and SMARCA4 HiBiT Degradation Assay in HeLa Cells
(§5) Compounds were dissolved in DMSO to make 10 mM stock and 3-fold series dilutions were further conducted keeping the highest concentration 10 μM. NCIH1693 and NCIH520 cells were maintained in PRMI 1640 medium (Corning Cellgro, Catalog #:10-040-CV) supplemented with 10% v/v FBS (GE Healthcare, Catalog #: SH30910.03) by splitting 1:3 twice a week.
(§6) Dispense 10 ul aliquot of prepared Hela-SMARCA2-HiBiT or Hela-SMARCA4-HiBiT cells (1:1 ratio of cells:Trypan Blue (#1450013, Bio-Rad)) onto cell counting slide (#145-0011, Bio-Rad) and obtain cell density and cell viability using cell counter (TC20, Bio-Rad). Remove appropriate volume of resuspended cells from culture flask to accommodate 2500 cells/well @[…]. Transfer Hela-HiBiT cells to 50 mL conical (#430290, Corning). Spin down at 1000 rpm for 5 min using tabletop centrifuge (SPINCHRON 15, Beckman). Discard supernatant and resuspend cell pellet in modified EMEM (#30-2003, ATCC) cell culture media containing 10% FBS (F2422-500 ML, Sigma), and 1× Penicillin/Streptomycin (200 g/L) (30-002-CI, Corning) to a cell density of 125,000 cells/mL. Dispense […] of resuspended Hela-HiBit cells per well in 384-well TC treated plate (#12-565-343, Thermo Scientific) using standard cassette (#50950372, Thermo Scientific) on Multidrop Combi (#5840310, Thermo Scientific) inside laminar flow cabinet. Dispense test compounds onto plates using digital liquid dispenser (D300E, Tecan). Incubate plates in humidified tissue culture incubator @37° C. for 18 hours. Add […] of prepared Nano-Glo® HiBiT Lytic detection buffer (N3050, Promega) to each well of 384-well plate using small tube cassette (#24073295, Thermo Scientific) on Multidrop Combi, incubate @RT for 30-60 min. Read plates on microplate reader (Envision 2105, PerkinElmer) using 384 well Ultra-Sensitive luminescence mode. Raw data files and compound information reports are swept into centralized data lake and deconvoluted using automated scripts designed by TetraScience, Inc. Data analysis, curve-fitting and reporting done in Dotmatics Informatics Suite using Screening Ultra module.
(§7) In Table 5, A=DC50<0.1 μM; B=0.1 μM≤DC50<1 μM and C=DC50>1 μM. In Table 5, A=Dmax>75% and B=50%<Dmax≤75% and C=Dmax<50%.

[2] = target: T2, SMARCA4 (Homo sapiens, UniProt P51532); test: SMARCA4 HiBiT degradation assay in HeLa cells; assay type: cell-based; settings: 18 hours incubation
T2 construct: SMARCA4-HiBiT knock-in Hela monoclonal cell (CS3023226) were purchased from Promega; host or cells: HeLa SMARCA4-HiBiT knock-in monoclonal cells (heterozygous knock-in)
T2 sequence (P51532 whole entry): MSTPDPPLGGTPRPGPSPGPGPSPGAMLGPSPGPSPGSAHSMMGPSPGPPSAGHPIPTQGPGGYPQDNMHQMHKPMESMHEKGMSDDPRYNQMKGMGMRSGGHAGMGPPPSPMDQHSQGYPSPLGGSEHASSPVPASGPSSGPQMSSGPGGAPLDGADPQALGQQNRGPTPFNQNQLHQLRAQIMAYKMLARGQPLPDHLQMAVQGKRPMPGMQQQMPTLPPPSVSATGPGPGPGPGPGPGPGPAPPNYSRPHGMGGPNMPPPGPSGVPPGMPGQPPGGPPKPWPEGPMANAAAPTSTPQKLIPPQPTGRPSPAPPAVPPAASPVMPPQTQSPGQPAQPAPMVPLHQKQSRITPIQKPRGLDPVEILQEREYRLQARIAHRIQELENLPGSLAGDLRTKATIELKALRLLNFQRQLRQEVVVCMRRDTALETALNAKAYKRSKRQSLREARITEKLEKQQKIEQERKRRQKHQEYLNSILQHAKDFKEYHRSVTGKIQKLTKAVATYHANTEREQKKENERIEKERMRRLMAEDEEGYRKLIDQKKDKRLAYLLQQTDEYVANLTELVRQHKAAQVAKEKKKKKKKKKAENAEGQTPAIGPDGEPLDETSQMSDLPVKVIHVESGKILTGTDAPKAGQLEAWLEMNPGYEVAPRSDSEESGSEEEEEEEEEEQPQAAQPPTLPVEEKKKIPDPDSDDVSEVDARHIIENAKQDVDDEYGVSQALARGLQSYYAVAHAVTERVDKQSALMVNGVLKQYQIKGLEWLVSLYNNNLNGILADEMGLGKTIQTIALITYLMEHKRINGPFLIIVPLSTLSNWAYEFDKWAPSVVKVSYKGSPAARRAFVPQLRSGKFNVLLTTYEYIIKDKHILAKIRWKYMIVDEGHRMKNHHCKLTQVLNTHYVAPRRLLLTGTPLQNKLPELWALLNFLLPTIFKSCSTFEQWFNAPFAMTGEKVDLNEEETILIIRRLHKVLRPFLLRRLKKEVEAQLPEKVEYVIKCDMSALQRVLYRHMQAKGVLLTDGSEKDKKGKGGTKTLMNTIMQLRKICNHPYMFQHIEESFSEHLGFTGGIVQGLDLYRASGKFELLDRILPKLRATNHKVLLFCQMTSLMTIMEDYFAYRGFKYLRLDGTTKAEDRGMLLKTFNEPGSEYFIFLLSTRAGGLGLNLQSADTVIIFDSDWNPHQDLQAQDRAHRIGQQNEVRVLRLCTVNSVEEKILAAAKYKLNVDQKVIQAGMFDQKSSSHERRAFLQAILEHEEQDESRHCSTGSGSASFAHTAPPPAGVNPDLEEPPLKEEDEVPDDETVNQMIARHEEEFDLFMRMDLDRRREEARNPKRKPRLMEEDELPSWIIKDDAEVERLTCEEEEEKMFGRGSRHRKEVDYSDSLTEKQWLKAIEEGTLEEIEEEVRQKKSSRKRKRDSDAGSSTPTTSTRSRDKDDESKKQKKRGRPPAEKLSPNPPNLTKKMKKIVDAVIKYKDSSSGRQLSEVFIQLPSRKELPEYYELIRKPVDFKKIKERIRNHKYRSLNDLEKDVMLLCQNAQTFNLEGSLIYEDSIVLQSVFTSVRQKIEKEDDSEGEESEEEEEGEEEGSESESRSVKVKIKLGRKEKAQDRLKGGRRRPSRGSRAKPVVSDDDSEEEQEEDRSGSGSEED
Description: as §1, §2, §3, §4, §5, §6, §7

Structure (SMILES): CC1(C)CN(CC2CCN(c3ccc4c(c3)C(=O)N([C@H]3CCC(=O)NC3=O)C4)CC2)CCN1C(=O)N1CCc2[nH]c3nnc(-c4ccccc4O)cc3c2CC1 [Example 1, (S)-3-(6-(4-((4-(3-(2-Hydroxyphenyl)-5,6,7,8,9,10-hexahydropyridazino [4′,3′:4,5]pyrrolo[2,3-d]azepine-7-carbonyl)-3,3-dimethylpiperazin-1-yl)methyl)piperidin-1-yl)-1-oxoisoindolin-2-yl)piperidine-2,6-dione]
- DC50 [1]: < 100 nM
- Dmax [1]: > 75%
- DC50 [2]: < 100 nM
- Dmax [2]: > 75%

Structure (SMILES): C[C@@H]1CN(CC2CCN(c3ccc4c(c3)C(=O)N([C@H]3CCC(=O)NC3=O)C4)CC2)C[C@H](C)N1C(=O)N1CCc2[nH]c3nnc(-c4ccccc4O)cc3c2CC1 [Example 2, (S)-3-(6-(4-(((3R,5S)-4-(3-(2-hydroxyphenyl)-5,6,7,8,9,10-hexahydropyridazino[4′,3′:4,5]pyrrolo[2,3-d]azepine-7-carbonyl)-3,5-dimethylpiperazin-1-yl)methyl)piperidin-1-yl)-1-oxoisoindolin-2-yl)piperidine-2,6-dione]
- DC50 [1]: < 100 nM
- Dmax [1]: > 75%
- DC50 [2]: < 100 nM
- Dmax [2]: > 75%

Structure (SMILES): O=C1CC[C@H](N2Cc3ccc(N4CCC(CN5CCN(C(=O)N6CCc7[nH]c8nnc(-c9ccccc9O)cc8c7CC6)CC5)CC4)cc3C2=O)C(=O)N1 [Example 3, (S)-3-(6-(4-((4-(3-(2-hydroxyphenyl)-5,6,7,8,9,10-hexahydropyridazino[4′,3′:4,5]pyrrolo[2,3-d]azepine-7-carbonyl)piperazin-1-yl)methyl)piperidin-1-yl)-1-oxoisoindolin-2-yl)piperidine-2,6-dione]
- DC50 [1]: < 100 nM
- Dmax [1]: > 75%
- DC50 [2]: < 100 nM
- Dmax [2]: > 75%

Structure (SMILES): CC1(C)CN(CC2CCN(c3ccc4c(c3)C(=O)N([C@H]3CCC(=O)NC3=O)C4)CC2)CCN1C(=O)N1CCc2[nH]c3nnc(-c4cccc(F)c4O)cc3c2CC1 [Example 4, (S)-3-(6-(4-((4-(3-(3-Fluoro-2-hydroxyphenyl)-5,6,7,8,9,10-hexahydro-pyridazino[4′,3′:4,5]pyrrolo[2,3-d]azepine-7-carbonyl)-3,3-dimethylpiperazin-1-yl)methyl)piperidin-1-yl)-1-oxoisoindolin-2-yl)piperidine-2,6-dione]
- DC50 [1]: < 100 nM
- Dmax [1]: 50 to 75%
- DC50 [2]: > 1000 nM
- Dmax [2]: < 50%

Structure (SMILES): CCC1CN(C(=O)N2CCN(CC3CCN(c4ccc5c(c4)C(=O)N([C@H]4CCC(=O)NC4=O)C5)CC3)CC2(C)C)CCc2c1[nH]c1nnc(-c3cccc(F)c3O)cc21 (stereo partly drawn) [Example 5, (3S)-3-(6-(4-((4-(9-ethyl-3-(3-fluoro-2-hydroxyphenyl)-5,6,7,8,9,10-hexahydropyridazino[4′,3′:4,5]pyrrolo[2,3-d]azepine-7-carbonyl)-3,3-dimethylpiperazin-1-yl)methyl)piperidin-1-yl)-1-oxoisoindolin-2-yl)piperidine-2,6-dione]
- DC50 [1]: 100 to 1000 nM
- Dmax [1]: 50 to 75%
- DC50 [2]: > 1000 nM
- Dmax [2]: < 50%

Structure (SMILES): CC1(C)CN(CC2CCN(c3ccc4c(c3)C(=O)N([C@H]3CCC(=O)NC3=O)C4)CC2)CCN1C(=O)N1C2CCC1Cc1c([nH]c3nnc(-c4cccc(F)c4O)cc13)C2 (stereo partly drawn) [Example 6, (3S)-3-(6-(4-((4-(3-(3-fluoro-2-hydroxyphenyl)-6,7,8,9,10,11-hexahydro-5H-6,9-epiminocycloocta[4,5]pyrrolo[2,3-c]pyridazine-12-carbonyl)-3,3-dimethylpiperazin-1-yl)methyl)piperidin-1-yl)-1-oxoisoindolin-2-yl)piperidine-2,6-dione]
- DC50 [1]: < 100 nM
- Dmax [1]: > 75%
- DC50 [2]: 100 to 1000 nM
- Dmax [2]: 50 to 75%

Structure (SMILES): CC1(C)CN(CC2CCN(c3ccc4c(c3)C(=O)N([C@H]3CCC(=O)NC3=O)C4)CC2)CCN1C(=O)N1CC2CCC1Cc1c2[nH]c2nnc(-c3cccc(F)c3O)cc12 (stereo partly drawn) [Example 7, (3S)-3-(6-(4-((4-(3-(3-fluoro-2-hydroxyphenyl)-5,6,7,8,9,10-hexahydro-6,9-(epiminomethano)cyclohepta[4,5]pyrrolo[2,3-c]pyridazine-12-carbonyl)-3,3-dimethylpiperazin-1-yl)methyl)piperidin-1-yl)-1-oxoisoindolin-2-yl)piperidine-2,6-dione]
- DC50 [1]: 100 to 1000 nM
- Dmax [1]: < 50%
- DC50 [2]: 100 to 1000 nM
- Dmax [2]: < 50%
